In brackets after ≈: the same amount, converted by molar mass.

The test system of data set [1] is nine gonococcal isolates (strain NCCP11945 and eight isolates from Public Health England). The experiment in a line: Minimum bactericidal concentration by log reduction against nine gonococcal isolates. In kind it is cell-based, Neisseria gonorrhoeae. The text has this: The seven candidates were further tested against nine gonococcal isolates, including strain NCCP11945 and eight isolates from Public Health England, to find their minimal bactericidal concentration (MBC). This was defined as the lowest concentration tested to give an average 4-log10 reduction in bacterial count after a 2-min exposure. […] Any candidate that killed all gonococcal cells in the cell suspension was given a log reduction score of six.
(§1) The well-characterized N. gonorrhoeae NCCP11945 strain ([36]) was used in the screening stage. Eight isolates obtained from Public Health England, representing circulating isolates from various European locations, were used in the log reduction assays. All isolates were cultured for 24 h prior to testing by plating on GC solid medium (Oxoid Limited, Hampshire, United Kingdom) with Kellogg supplements and incubation at 37°C and 5% CO2 ([37]).
(§2) Log reductions were done as described by Bergsson and coworkers ([18]). Briefly, cells were suspended in GC broth (18 g/liter GC base [Oxoid, Limited] with added defined supplements) to an optical density at 520 nm of 0.3, which is approximately equivalent to 10^7 to 10^8 cells per ml ([38]). […] The contents of the tubes were then mixed at room temperature for 2 min and immediately diluted in a 10-fold dilution series to 10^−4. The dilutions were plated by spreading 10 µl on a quarter of a plate; a 100-µl neat solution was also plated. Plates were then incubated at 37°C for 48 h, with all samples plated in duplicate. […] Additional testing at lower concentrations was also done on the eight clinical isolates of European origin.

Data set [2] relates to N. gonorrhoeae strain NCCP11945 in coculture with human corneal epithelial cells. The experiment in a line: Cell culture infection model, log reduction of N. gonorrhoeae on corneal epithelial cells. Format: cell-based, Neisseria gonorrhoeae. Particulars: for Killing of N. gonorrhoeae in coculture with corneal cells: 1 mM, added at time of infection or 90 min later, 3 h. The procedure:
Because of its potency, resistance to precipitation in the presence of calcium, and nonirritant nature, monocaprin was chosen from the seven candidates to test in a cell culture model with a 2-fold dilution series from 1 mM to 0.125 mM. Bacteria were also challenged with this compound at two different time points, i.e., at the time of the inoculation and 90 min later. […] There was a slight difference in the level of efficacy when monocaprin was used at sub-MBC levels and added 90 min after bacterial inoculation in comparison to addition immediately after inoculation of the bacteria (Fig. 6). This was possibly due to monocaprin hindering attachment of the bacterial cells to the corneal cells when it was added at the time of infection.
Primary cornea epithelial cells (Life Technologies, Inc.) were grown in keratinocyte serum-free medium (Life Technologies, Inc.) at 37°C with 5% CO2 until 80% confluence was reached. Cells were treated with trypsin, washed, added to 24-well plates, and incubated for a further 24 h. The medium was replaced and approximately 10^7 CFU/ml P^+ and Opa^+ N. gonorrhoeae strain NCCP11945 added to reach a host-to-pathogen ratio (multiplicity of infection) of 1:10. Monocaprin (1 mM, 0.5 mM, 0.25 mM, or 0.125 mM) was added either at 0 min or at 90 min after seeding with N. gonorrhoeae. Controls included noninfected, noninfected treated (with 1 mM monocaprin), infection, and gentamicin controls. After 3 h, the cells were washed, treated with 1% saponin, and incubated for 10 min at 37°C. GC broth was added to each well, and log reductions were calculated as detailed above. Comparisons of the log reductions at different drug administration times at given concentrations were performed using an unpaired t test and GraphPad Prism (version 6.01).

The test system of data set [3] is N. gonorrhoeae strain NCCP11945. As to the kind of experiment: Log reduction assay in GC broth, 2-min exposure. In kind it is cell-based, Neisseria gonorrhoeae. As to the method:
(§3) To find potential candidates, 37 organic acids, esters, and salts were tested in a two-tiered screening process. These candidates were chosen based on the carbon chain lengths of the fatty acids, the presence or absence of saturation, and modifications to represent a diverse selection of organic acid candidates. The first screen aimed to determine the ability of each compound to inhibit the growth of N. gonorrhoeae strain NCCP11945 at 1 mM in GC solid media (Table 1). This strain was chosen due to its relatively recent isolation, its antibiotic resistance profile, and the availability of a complete genome sequence. Those candidates able to inhibit the growth of N. gonorrhoeae strain NCCP11945 were investigated in a second assay. The second assay tested the ability of each compound to cause at least a 4-log reduction in viable bacteria at 1 mM with a 2-min exposure time (Table 1).
as §2

The test system is the same in data set [4]. As to the kind of experiment: Growth inhibition screen on GC solid media containing 1 mM candidate. Particulars: 1 mM candidate in GC agar media; Yes = strain NCCP11945 did not grow. Format: cell-based, Neisseria gonorrhoeae. The procedure:
as §3, §1

A further data set has as its system bovine RBCs. As to the kind of experiment: Red blood cell (RBC) lysis assay. Format: cell-based. As to the method: Whole bovine blood was obtained from a local slaughter house (ABP), adding 90 ml blood to 10 ml 110 mM trisodium citrate anticoagulant. RBCs were isolated the same day. The RBCs were washed by three repeats of centrifugation (1,500 × g for 10 min) and resuspension in phosphate-buffered saline (PBS) with 10 mM glucose (PBSG). Testing was done following the guidelines of the European Union Reference Laboratory for alternatives to animal testing (EURL-ECVAM) ([22]). The organic acids were solubilized in dimethyl sulfoxide (DMSO) and diluted to a maximum DMSO concentration of 10%. In a 2-ml centrifuge tube, 750 µl of the sample was added to 250 µl RBCs. Controls used in the assay were a complete lysis control (deionized water) and a fragility control (PBSG–10% DMSO). Samples were shaken at room temperature for 1 h and then centrifuged at 14,000 × g for 2 min. An aliquot of 750 µl of the supernatant was taken and its absorbance at 451 nm measured.

For data set [5], the system named is N. gonorrhoeae on human corneal epithelial cells. As to the kind of experiment: LIVE/DEAD staining of gonococcus-infected human corneal epithelial cells. Particulars: 1 mM. Format: cell-based, Neisseria gonorrhoeae. As to the method: The LIVE/DEAD BacLight bacterial viability kit for microscopy (Life Technologies, Inc.) was used according to manufacturer’s instructions. After the course of infection, the culture wells were washed five times with sterile 0.85% NaCl to remove nonadhered bacterial cells. Stain was added to each well for 15 min at room temperature before washing in 0.85% saline solution was performed. Glass coverslips were mounted in BacLight mounting oil and visualized on a Nikon Eclipse i80 fluorescence microscope (Nikon United Kingdom) as detailed above.

In the next data set the test system is N. gonorrhoeae. Also noted: method as in PMID 10543766. The note with it: cited from earlier work.

Take `CCCCCCCCCC(=O)OCC(O)CO` (stereo not shown) [Monocaprin]: the “Killing of all gonococcal cells for all isolates” value in data set [1] (1 mM, 2 min) is “killed all gonococcal cells for all isolates”. The compound also yielded a minimum bactericidal concentration (MBC) in data set [1] (lowest concentration giving mean log reduction above 4 from a 2-min exposure) of 500 µM (≈ 123 µg/mL). Moreover, in data set [2] (0.125 mM, both time points), the “Efficacy (log reduction) in cell culture model” value was “completely ineffective”. In addition, the “Killing of N. gonorrhoeae in coculture with corneal cells” value in data set [2] is on record as “killed all N. gonorrhoeae bacteria”. In addition, the “Killing of N. gonorrhoeae in coculture with corneal cells” value in data set [2] (listed as monocaprin) is listed as “complete killing”. In addition, the “Bacterial log reduction, comparison of addition times” value in data set [2] (0.25 and 0.5 mM, 0 min vs 90 min) is reported as “more effective at 0 min”. Moreover, in data set [3], the “Log reduction at 1 mM: at least a 4-log reduction in viable bacteria (Yes/No)” value is “Yes”. Also, the “Log reduction at 1 mM (calculated log reduction in viable bacteria)” value in data set [3] (maximum score 6 = all cells killed) is listed as over 6 log10. Also, the Growth inhibition entry in data set [4] is reported as “Yes”. Further, the “H50 concentration relative to MBC” value with bovine RBCs was “greater than their MBCs”. Further, in data set [5], the “LIVE/DEAD staining of bacteria on infected corneal cells” value is recorded as “only dead bacterial cells” and the “Viable bacteria recovered from treated wells” value is reported as “No viable bacteria were recovered”. Moreover, the Antigonococcal properties result with N. gonorrhoeae was “strong antigonococcal properties”.

Broadly, the MBC is the smallest concentration meeting the test's criterion for killing. High values mean weaker bactericidal potency, low ones greater bactericidal potency.

The values are drawn from article PMC5527305, “Prevention of Ophthalmia Neonatorum Caused by Neisseria gonorrhoeae Using a Fatty Acid-Based Formulation” (mBio, 2017).
